# Source: PMC11002876, “KcsA-Kv1.x chimeras with complete ligand-binding sites provide improved predictivity for screening selective Kv1.x blockers” (The Journal of Biological Chemistry, 2024)
# Where no end group is shown, it is not given here.
# Columns and labels:
# [1] = system: human Kv1.3 channel (hKv1.3); type: cell-based; details: TEA+ 10 mM, positive control; human lymphocytes
# Procedure: (§1) Human Kv1.3 currents were recorded from activated peripheral blood mononuclear cells (see below) 3 to 4 days after activation. Heparinized human peripheral venous blood was obtained from healthy volunteers. Mononuclear cells were separated through Histopaque-1077 density gradient centrifugation. Collected cells were washed twice with Ca^2+- and Mg^2+-free Hanks’ solution containing 25 mM Hepes buffer, pH 7.4. Cells were cultured for 3 to 4 days in 24-well culture plates in a 5% CO2 incubator at 37 °C, in RPMI 1640 medium supplemented with 10% fetal calf serum (Sigma-Aldrich), 100 μg/ml penicillin, 100 μg/ml streptomycin, and 2 mM L-glutamine (density, 0.5 × 10^6 cells per ml). Phytohemagglutinin A (Sigma-Aldrich) was added to the medium at 10 μg/ml to amplify the Kv1.3 expression. Cells were washed gently twice with 2 ml of ECS for the patch-clamp experiments.
# (§2) Conventional whole-cell patch-clamp electrophysiology was used to record ionic currents. Micropipettes were pulled from GC150F-7.5 borosilicate capillaries (Harvard Apparatus) with tip diameters between 0.5 and 1 μm resulting in a tip resistance of 2 to 8 MΩ in the extracellular (bath) solution. All measurements were carried out by using Axopatch 200B amplifier connected to a personal computer using Axon Digidata 1550A data acquisition hardware and Pclamp10.7 software (https://support.moleculardevices.com/s/article/Axon-pCLAMP-10-Electrophysiology-Data-Acquisition-Analysis-Software-Download-Page). The holding potential was −120 mV. Records were discarded when leak at the holding potential was >10% of peak current at the test potential. Experiments were performed at room temperature (20–24 °C). Before analysis, whole-cell current traces were corrected for ohmic leakage and digitally filtered with a three-point boxcar smoothing filter.
# Solutions: all salts and components of the solutions were purchased from Sigma Aldrich. […]
# Native peptides, phage-expressed peptides, and positive controls used for them were dissolved in ECS supplemented with 0.1 mg/ml bovine serum albumin (BSA; Sigma-Aldrich Hungary). Bath perfusion around the measured cell with different extracellular solutions was achieved using a gravity flow micro perfusion system using a rate of 0.5 ml/min. […]
# (§3) Voltage protocols: For measurement of Kv1.1 to 1.3 currents, voltage steps to +50 mV were applied from a holding potential of −120 mV and the peak current was measured every 15 s. […] The remaining current fraction at a given molar concentration was calculated as I/I0, where I0 is the peak current in the absence and I is the peak current at equilibrium block or […] after ∼2 min perfusion by the investigated peptide/phage.
# [2] = system: human Kv1.3 channel (hKv1.3); details: read-out: IC50 on Kv1.3; positive control applied at a concentration equivalent to its IC50; no reference given; cited from earlier work
# Procedure: (§4) Voltage protocols: For measurement of Kv1.1 to 1.3 currents, voltage steps to +50 mV were applied from a holding potential of −120 mV and the peak current was measured every 15 s. For Kv1.3 currents, 15-ms-long depolarizing pulses were applied. For Kv1.1, 50-ms-long–activating stimuli were used. Kv1.2 currents were evoked by 200-ms-long pulses. […] The remaining current fraction at a given molar concentration was calculated ...
# [3] = system: human Kv1.1 channel (hKv1.1); details: read-out: IC50 on Kv1.1; positive control applied at a concentration equivalent to its IC50; no reference given; cited from earlier work
# Procedure: as §4
# [4] = target: T1, KcsA-Kv1.3 T-only chimera (Streptomyces lividans, UniProt P0A334, A54D/A57S/G53D/G56T/I60S/L59F/Q58G/R52A/R64D/T61S/Y62I); experiment: Phage ELISA-binding assay, KcsA-Kv1.3 T-only; parameters: species or system human Kv1.3 turret in Streptomyces lividans KcsA; details: toxin displayed on M13 phage
# T1 construct: made in house; host or cells: E. coli XL1-Blue (pQE30)
# T1 sequence (P0A334 1-160 R52A/G53D/A54D/G56T/A57S/Q58G/L59F/I60S/T61S/Y62I/R64D): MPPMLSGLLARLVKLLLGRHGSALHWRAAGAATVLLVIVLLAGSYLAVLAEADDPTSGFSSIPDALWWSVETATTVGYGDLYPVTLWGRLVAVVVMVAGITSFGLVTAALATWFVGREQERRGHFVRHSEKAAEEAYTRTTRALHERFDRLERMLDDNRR
# Procedure: Phage display test solutions were prepared according to routine phage display protocols ([62]). Phosphorylated and annealed oligonucleotides encoding the peptide construct were ligated into linearized pAS62 phagemid vector (https://patents.google.com/patent/WO2022144560A1/en) at a vector/insert ratio of 1:3. The final phagemid construct harbored a signal sequence followed by the peptide of interest, a linker sequence ([…]), and the C-terminal part of the P3 coat protein (amino acids: 216-424 of NP_510891.1). […] The particle concentrations of phage solutions were determined using a NanoDrop One C (Thermo Fisher Scientific) spectrophotometer. The phage particle concentration was assessed according to the formula: (A268–A320) × 5 × 10^12 particles/ml ([62]). […]
# Phage stock solutions were diluted to working concentration with phage resuspension buffer supplemented with 2 mM DDM. […] Following blocking, the wells were washed 4× with washing buffer (300 μl TBS-Tween, 0.1% v/v) using a Wellwash Versa microplate washer (Thermo Fisher Scientific); then 50 μl phage solution (in TBS-BSA-Tween, 0.1% v/v, 2 mM DDM) at determined phage concentration was added to the wells and incubated for 1 h at room temperature on a horizontal shaker. […]
# [5] = system: human Kv1.3 channel (hKv1.3); experiment: Whole-cell patch-clamp of phage-displayed toxins, hKv1.3 in human lymphocytes; type: cell-based; details: perfusion concentration; phage-displayed toxin; experimentally titrated; N = 3
# Procedure: as §1, §2
# Solutions: all salts and components of the solutions were purchased from Sigma Aldrich. The extracellular (bath) solution (ECS) contained 145 mM NaCl, 5 mM KCl, 2.5 mM CaCl2, 1 mM MgCl2, 10 mM Hepes, and 5.5 mM glucose (pH 7.35 with NaOH), while the intracellular (pipette) solution (ICS) contained 140 mM KF, 2 mM MgCl2, 1 mM CaCl2, 11 mM EGTA, and 10 mM Hepes (pH 7.22 with KOH). The osmolarity of the ECS and ICS were 302 mOsM.
# Native peptides, phage-expressed peptides, and positive controls used for them were dissolved in ECS supplemented with 0.1 mg/ml bovine serum albumin (BSA; Sigma-Aldrich Hungary). Bath perfusion around the measured cell with different extracellular solutions was achieved using a gravity flow micro perfusion system using a rate of 0.5 ml/min. Excess fluid was removed continuously.
# as §3, with “s. For Kv1.3 currents, 15-ms-long depolarizing pulses were applied. For Kv1.1, 50-ms-long–activating stimuli were used. Kv1.2 currents were evoked by 200-ms-long pulses.” for “s.”
# Phage display test solutions were prepared according to routine phage display protocols ([62]). Phosphorylated and annealed oligonucleotides encoding the peptide construct were ligated into linearized pAS62 phagemid vector (https://patents.google.com/patent/WO2022144560A1/en) at a vector/insert ratio of 1:3. The final phagemid construct harbored a signal sequence followed by the peptide of interest, a linker sequence ([…]), and the C-terminal part of the P3 coat protein (amino acids: 216-424 of NP_510891.1). Chemically competent XL1-Blue E. coli cells (2022249, Agilent) were transformed with the ligation product and then streaked onto ampicillin (100 μg/ml) containing LB/Amp plates and incubated for 16 h at 37 °C.
# [6] = system: T+F chimera variant mutated at T84; experiment: Phage binding to T84-mutated T+F chimera, pilot experiment; details: pilot experiment (not shown)
# Procedure: Phage stock solutions were diluted to working concentration with phage resuspension buffer supplemented with 2 mM DDM. For protein immobilization, the following amounts were used in a final volume of 50 μl/well: wt KcsA, 0.1 μg; KcsA-Kv1.1 T-only, 0.005 μg; KcsA-Kv1.1 T+F, 0.02 μg; KcsA-Kv1.2 T-only, 0.01 μg; KcsA-Kv1.2 T+F, 0.1 μg; KcsA-Kv1.3 T-only, 0.01 μg; and KcsA-Kv1.3 T+F, 0.1 μg. Protein samples were diluted in 50 μl of storage buffer (20 mM Tris pH8.0, 300 mM KCl, 2 mM DDM) and were added to the designated wells of a Pierce Clear, 96-Well Nickel Coated Plate (15442, Thermo Fisher Scientific), then incubated for 1 h at room temperature on a horizontal shaker at 130 rpm. The plate was blocked for 1 h at room temperature with 180 μl/well TBS-BSA supplemented with 1 mM DDM. Following blocking, the wells were washed 4× with washing buffer (300 μl TBS-Tween, 0.1% v/v) using a Wellwash Versa microplate washer (Thermo Fisher Scientific); then 50 μl phage solution (in TBS-BSA-Tween, 0.1% v/v, 2 mM DDM) at determined phage concentration was added to the wells and incubated for 1 h at room temperature on a horizontal shaker. […] The light absorbance signal was read at 450 nm with Byonoy absorbance 96 plate reader (Byonoy GmbH).
# [7] = system: human Kv1.2 channel (hKv1.2); details: positive control applied at a concentration equivalent to its IC50; no reference given; cited from earlier work
# Procedure: as §4
molecule,measurement,setting,value
"CC[N+](CC)(CC)CC [TEA+, tetraethylammonium]",inhibition of Kv1.3 current,[1],approximately 50%
same,IC50,[2],10000 µM
same,IC50,[3],300 µM
HgTX1-phage: HgTx1 fused to the P3 coat protein of M13 phage with an eight amino acid linker (TVIDVKCTSPKQCLPPCKAQFGIRAGAKCMNGKCKCYPH-{GSASSATR-M13 P3 coat protein (216-424)}; not fully specified; ends and bridges not checked),"phage binding to KcsA-Kv1.3 T-only, in words",[4],weaker binding
same,phage concentration giving approximate 50% block of hKv1.3 current,[5],~1.8 x 10^12 particle/ml
MTX-expressing phages: MTX displayed on M13 phage (VSCTGSKDCYAPCRKQTGCPNAKCINKSCKCYGC-{GSASSATR-M13 P3 coat protein (216-424)}; not fully specified; ends and bridges not checked),"binding to T+F chimera variant mutated at T84, in words",[6],did not diminish when T84 was mutated
charybdotoxin,IC50,[7],0.014 µM
